Test results as given in US11504371B2, “Quinazolines compound, preparation method therefor and application thereof” (Beijing Normal University, priority 2017, dated 2022).
Where “and” joins values, the source holds several entries; their conditions need not be identical. Equal entries are not always repeated. Entries after “also recorded” stand apart in the source; their conditions may differ. Marks after values point to notes of the source that are not given here. Values belong to the compound of their own block, whether it stands above or below them.

Tests used:
cells A549 = experiment: Intracellular reactive oxygen species (fluorescence spectrometer); format: cell-based, human; details: A549 after treatment
Excerpt: A part of the compound of anilino polyethylene glycol ether cycloquinazoline substituted with a substituted arylmethyl heteroatomic group represented by formula (I) are studied by detecting cell mitochondrial membrane potential and intracellular reactive oxygen species.

[1] = system: human lung cancer cell line (A549); experiment: MTT assay, tumor cell proliferation inhibition, A549; format: cell-based; details: for IC50: Homo sapiens, A549, MTT, 72 h, read-out: Tumor inhibition rate (IC50)
Protocol: (§1) Cell lines to be tested: human hepatoma cell line (HepG2), human lung cancer cell line (A549), human prostate cancer cell line (DU145), human breast cancer cell line (MCF-7), human neuroblastoma cell line (SH-SY5Y), human gastric mucosal cell line (Ges-1) and human embryonic lung fibroblast cell line (CCC-HPF-1) (the cells to be tested were purchased from the Cancer Hospital of Chinese Academy of Medical Sciences).
(§2) The cells in logarithmic growth phase were treated to prepare a single cell suspension, with the cell density adjusted, which was seeded in a 96-well cell culture plate. About 2×10^3 cells were contained in 100 μL per well, and cultured in a cell incubator at 37° C., 5% CO2, and saturated humidity for 24 h. The used medium was aspirated and abandoned, and then 100 μL of the target compound in different concentrations (0.1 μM-100 μM) were added for drug treatment. Five duplicate wells were prepared for each concentration. The background blank well, negative control well and positive control well were also prepared. All the wells were placed in a cell culture incubator at 37° C., 5% CO2, saturated humidity for another 72 h. Then, each well was added with 10 μL of MTT solution (5 mg/mL) and incubated for another 4 h. After that, each well was added with 100 μL of 10% SDS-0.1% NH4Cl (10% SDS purchased from Beijing Mengyimei Biotechnology Co., Ltd.) solution, and incubated at 37° C. for 10 h in the dark. Then, the absorbance OD was measured at 570 nm using a microplate reader at a reference wavelength of 650 nm. Cell proliferation inhibition was calculated according to the following formula: % inhibition=(ODcontrol−ODtreat)(ODcontrol−ODblank)×100. […] Each group was performed at least three times in parallel.

cell membrane = experiment: Cell membrane permeability test (Hoechst 33342 fluorescence); format: cell-based; details: Hoechst 33342 fluorescence observation
Excerpt: One of the anilino polyethylene glycol ether cycloquinazoline substituted with a substituted arylmethyl heteroatomic group of formula (I), N-(4-((4-nitrophenyl)methoxy)phenyl)-6,7-(benzo-9-crown-3)-4-quinazolinamine, is studied by cell membrane permeability test. […] As the concentration of the target compound increases, the permeability is improved and the cells undergo apoptosis.

A549 cells = experiment: Cell cycle experiment (PI staining, flow cytometer); format: cell-based, human; details: for Cell proportion, G0/G1 / Cell proportion, G2/M / Cell proportion, S: 48 h
Protocol: Experiment procedure: A549 cells in logarithmic growth phase (purchased from the Cancer Hospital of Chinese Academy of Medical Sciences) were seeded into 6-well cell culture plates, adjusted to 5×10^5 cells per well, and cultured in an incubator at 37° C., 5% CO2, and saturated humidity for 24 h. The used medium was discarded. The cells were treated with the target compounds in different concentrations for 48 h, and grouped to an administration group and a control group (non-administered). The cells were digested with 0.25% trypsin to form a single cell suspension, centrifuged at 1500 r/min for 5 min. The supernatant was discarded, and the cells were collected. The cells were washed twice with precooled PBS buffer, centrifuged at 1500 r/min for 5 min, added to 5 mL of precooled 70% ethanol, and placed at 4° C. for at least 24 h. After centrifugation, the supernatant was discarded, and the cells were washed twice with PBS and collected by centrifugation. The cells were suspended in 400 μL PBS, added with 30 μL of RNaseA (purchased from Corning Inc., USA) at the concentrations from 1 mg/mL to 50 μg/mL, and incubated at 37° C. for 30 min. The centrifuge tube was then inserted into an ice bath to stop digestion. After the tube was cooled, 50 μL of PI staining solution (500 μg/mL) (purchased from Corning Inc., USA) was added to a final concentration of 50 μg/mL. The tube was immersed in an ice bath to perform straining in the dark for 30 min-40 min, filtered through a 300 mesh nylon mesh, and tested by flow cytometer (FACS Vantage SE: BD, USA).

[2] = system: human hepatoma cell line (HepG2); experiment: MTT assay, tumor cell proliferation inhibition, HepG2; format: cell-based; details: Homo sapiens, 72 h, read-out: Tumor inhibition rate (IC50)
Protocol: as §1, §2

[3] = system: human neuroblastoma cell line (SH-SY5Y); experiment: MTT assay, tumor cell proliferation inhibition, SH-SY5Y; format: cell-based; details: Homo sapiens, SH-SY5Y, 72 h, read-out: Tumor inhibition rate (IC50)
Protocol: as §1, §2

[4] = system: human prostate cancer cell line (DU145); experiment: MTT assay, tumor cell proliferation inhibition, DU145; format: cell-based; details: Homo sapiens, DU-145; DU145, MTT, 72 h; read-out: Tumor inhibition rate (IC50)
Protocol: as §1, §2

[5] = system: human breast cancer cell line (MCF-7); experiment: MTT assay, tumor cell proliferation inhibition, MCF-7; format: cell-based; details: Homo sapiens, MCF7; MCF-7, MTT, 72 h; read-out: Tumor inhibition rate (IC50)
Protocol: as §1, §2

A549 cancer cells = experiment: Nude mice bearing A549 cancer cells; format: in vivo
Protocol: In the present invention, the antitumor activity was evaluated by intraperitoneal injection to nude mice bearing different tumors, for compounds 3 (N-(4-((4-nitrophenyl)methoxy)phenyl)-6,7-(benzo-9-crown-3)-4-quinazolinamine) and 23 (compounds No. are shown in Table 1) (N-(3-((4-trifluoromethylphenyl)methoxy)phenyl)-6,7-(benzo-12-crown-4)-4-quinazolinamine) of formula (I).
Firstly, a tumor-bearing nude mouse model was established. 0.2-1 mL of cell suspension was inoculated subcutaneously into the left lower limb of nude mice, and the drug was administered when the tumor volume reached about 100 mm^3. Then, grouping and administration were performed; the nude mice (5 mice in each group) were randomly divided into several groups, such as ultra-pure water control group (blank), positive drug control group, and different dosage treatment groups. The nude mice in each group were administered continuously for 40 days. The nude mice were weighted every other day during the administration. Tumor volumes were measured and calculated. Then tumor growth curve, tumor inhibition curve (see FIGS. 1 and 3) and weight change curve (see FIGS. 2 and 4) were drawn. […]. Among those, docetaxel suffers from high cumulative neurotoxic toxicity and drug resistance although it has the best effect. Comparing to docetaxel, compound 23 has a much lower toxicity and drug resistance, and thus has a great development prospect. […]

HepG2 cancer cells = experiment: Nude mice bearing HepG2 cancer cells
Protocol: Firstly, a tumor-bearing nude mouse model was established. […] Then, grouping and administration were performed; the nude mice (5 mice in each group) were randomly divided into several groups, such as ultra-pure water control group (blank), positive drug control group, and different dosage treatment groups. The nude mice in each group were administered continuously for 40 days. The nude mice were weighted every other day during the administration. Tumor volumes were measured and calculated.

[6] = system: tumor cell strains HepG2, A549, MCF-7, DU145 and SH-SY5Y; experiment: MTT assay, summary over the five tumor cell lines; format: cell-based, human; details: HepG2, A549, MCF-7, DU145, SH-SY5Y
Protocol: as §1
The cells in logarithmic growth phase were treated to prepare a single cell suspension, with the cell density adjusted, which was seeded in a 96-well cell culture plate. About 2×10^3 cells were contained in 100 μL per well, and cultured in a cell incubator at 37° C., 5% CO2, and saturated humidity for 24 h. The used medium was aspirated and abandoned, and then 100 μL of the target compound in different concentrations (0.1 μM-100 μM) were added for drug treatment. Five duplicate wells were prepared for each concentration. The background blank well, negative control well and positive control well were also prepared. All the wells were placed in a cell culture incubator at 37° C., 5% CO2, saturated humidity for another 72 h. Then, each well was added with 10 μL of MTT solution (5 mg/mL) and incubated for another 4 h. After that, each well was added with 100 μL of 10% SDS-0.1% NH4Cl (10% SDS purchased from Beijing Mengyimei Biotechnology Co., Ltd.) solution, and incubated at 37° C. for 10 h in the dark. Then, the absorbance OD was measured at 570 nm using a microplate reader at a reference wavelength of 650 nm. Cell proliferation inhibition was calculated according to the following formula: % inhibition=(ODcontrol−ODtreat)(ODcontrol−ODblank)×100. IC50 value, i.e., 50% proliferation inhibition concentration, was calculated by SPSS 16.0 software. Each group was performed at least three times in parallel.
The inhibitory activities of 35 target compounds against tumor cell strains HepG2, A549, MCF-7, DU145 and SH-SY5Y were tested by MTT assay (Table 1). Some compounds with optimal antitumor activity were selected.

SMILES: O=[N+]([O-])c1ccc(COc2ccc(Nc3ncnc4cc5c(cc34)OCCOCCO5)cc2)cc1 [Compound 3, N-(4-((4-nitrophenyl)methoxy)phenyl)-6,7-(benzo-9-crown-3)-4-quinazolinamine]
- intracellular reactive oxygen species (ROS) (cells A549): increased intracellular reactive oxygen species (ROS) and apoptosis
- IC50 [1]: 6.62 µM
- inhibitory activity on A549 (in words) ([1]; MTT, summary of Table 1): strong specific inhibitory activity
- effect on cell membrane permeability (cell membrane): can increase the permeability of the cell membrane
- cell cycle block (in words) (A549 cells; A549, 0-40 μM): can block A549 in G0/G1 phase
- Cell proportion, G0/G1 (A549 cells; A549, 5 μM): 84.51 ± 0.32 ^a %
- Cell proportion, G2/M (A549 cells; A549, 5 μM): 3.06 ± 0.12 ^ %
- Cell proportion, S (A549 cells; A549, 5 μM): 12.42 ± 0.10%
- Cell proportion, G0/G1 (A549 cells; A549, 10 μM): 85.58 ± 0.44 ^a %
- Cell proportion, G2/M (A549 cells; A549, 10 μM): 3.05 ± 0.19 ^ %
- Cell proportion, S (A549 cells; A549, 10 μM): 11.39 ± 0.64%
- Cell proportion, G0/G1 (A549 cells; A549, 20 μM): 87.23 ± 0.31 ^a %
- Cell proportion, G2/M (A549 cells; A549, 20 μM): 1.41 ± 0.05 ^a %
- Cell proportion, S (A549 cells; A549, 20 μM): 11.68 ± 0.26%
- Cell proportion, G0/G1 (A549 cells; A549, 40 μM): 90.08% and 90.08 ± 0.62 ^a %
- Cell proportion, G2/M (A549 cells; A549, 40 μM): 2.04 ± 0.14 ^a %
- Cell proportion, S (A549 cells; A549, 40 μM): 7.90 ± 0.50 ^a %
- IC50 [2]: > 100 µM
- IC50 [3]: 55.2 µM
- IC50 [4]: > 100 µM
- IC50 [5]: 39.7 µM
- tumor inhibition (A549 cancer cells; 60 mg/Kg, FIG. 1): significant inhibited
- body weight (A549 cancer cells; 60 mg/Kg, FIG. 2): not decreased significantly
- tumor inhibitory effect (tumor volume, FIG. 1) (A549 cancer cells; nude mice bearing A549, intraperitoneal injection): remarkable tumor inhibitory effect; also recorded: high inhibitory effect
- inhibitory activity against A549 compared with gefitinib (A549 cancer cells; same dose 45 mg/Kg, FIG. 1): significantly higher

- melting point: 197 to 198 °C
- weight loss of nude mice (FIG. 6) (HepG2 cancer cells; 40 mg/Kg, single agent): weight loss of nude mice is similar
- IC50 [1]: 8.56 µM
- IC50 [2]: 3.34 µM
- IC50 [3]: 2.14 µM
- IC50 [4]: 8.8 µM
- IC50 [5]: 10 µM
SMILES: FC(F)(F)c1ccc(COc2ccc(Nc3ncnc4cc5c(cc34)OCCOCCOCCOCCO5)cc2)cc1 [Compound 35, N-(4-((4-trifluoromethylphenyl)methoxy)phenyl)-6,7-(benzo-15-crown-5)-4-quinazolinamine]
- body weight of the mice (FIG. 6) (HepG2 cancer cells; 20 mg/Kg, single agent): significantly increased
- tumor growth (tumor volume, FIG. 5) (HepG2 cancer cells; nude mice bearing HepG2, single agent): can slow down the tumor growth with increasing drug dose
- inhibitory effect on proliferation of the five tumor cells (in words) [6]: good inhibitory effect on proliferation of at least three of the five tumor cells; also recorded: high anticancer activity on all the five tumor cells
